This note sets out measurements from patent US11447445B2, “Diabetes and metabolic syndrome treatment with a novel dual modulator of soluble epoxide hydrolase and peroxisome proliferator-activated receptors” (priority 2015, dated 2022).

For data set [1], the system named is PPARγ target genes (GLUT4, Adiponectin, FABP4, LPL). The data set is described as follows: qPCR of PPARγ target genes in human primary adipocytes. The data set is classed as cell-based. On the procedure: (§1) Human primary preadipocytes were obtained from stromal vascular fraction of subcutaneous fat from anonymous donors undergoing elective cosmetic surgery. Adipose tissue was digested by collagenase solution (0.3 U/ml in 1% BSA/PBS) for 45 min at 37° C. with constant shaking. Floating mature adipocytes were removed and the pellet containing the stromal vascular fraction was resuspended in erythrocyte lysis buffer. […] After 4 days the medium was changed to 3FC medium (QuickDiff medium without dexamethasone, IBMX and rosiglitazone). Adipocytes were cultured for additional 14 days before medium was changed to basal medium consisting of DMEM/Ham's F12 with biotin and panthotenate. This investigation conforms to the ethical principles outlined in the Declaration of Helsinki and was approved by the university ethics committee (Ethik-Kommission des Fachbereichs Medizin der Goethe-Universitat Frankfurt am Main). Total RNA was isolated using PeqGold RNAPure (Peqlab) according to manufacturer's instructions and was transcribed to cDNA using Maxima First Strand cDNA synthesis kit (Thermo Scientific), following manufacturer's instructions. Quantitative PCR was performed with iQ SYBR green Supermix (Bio-Rad) using a CFX96 (Bio-Rad) system. Expression was normalized to actin RNA.

The target in another data set is T1, PPARα (Homo sapiens, UniProt Q07869).
T1 construct: expressed in transfected cells; host or cells: COS-7
It is filed as cell-based.

The nature of data set [2]: Water solubility approximation. The note with it: aqueous with cosolvent or surfactant or cyclodextrin, kinetic from dmso stock; PBS pH 7.4, 0.01% Polysorbate 20, 1% DMSO; precipitation at 650 nm; read-out: w.s. (water solubility). It is filed as physicochemical. On the procedure:
PBS at pH 7.4 with 0.01% Polysorbate 20 (Tween) was combined with 1% of a DMSO solution of the inquired compound in a 96-well transparent flat bottom microtiter plate. Precipitation of the compound was measured at 650 nm with a Tecan Infinite 200 (Tecan Group Ltd, Mannedorf, Switzerland).

Another data set has as its target T2, hFFA1 (Homo sapiens, UniProt O14842).
T2 construct: expressed in transfected cells; host or cells: Flp-In T-REx 293 (HEK293), doxycycline-induced
The data set is described as follows: IP1 accumulation in HEK293 cells stably expressing hFFA1. It is filed as cell-based. The note with it: read-out: pEC50 (IP1 accumulation) (converted). On the procedure: (§2) Stably transfected Flp-In™ T-REx™ 293 cells (Invitrogen) were cultured in Dulbecco's modified Eagles's medium (DMEM) containing 10% (v/v) fetal bovine serum (FBS), penicillin (100 U/mL), streptomycin ([…]), Hygromycin B (100 μg/mL) and Blasticidin (15 μg/mL) at 37° C. and 5% CO2. All experiments were carried out after inducing receptor expression with 1 μg/mL doxycycline for approximately 18 hours, according to manufacturer's instructions (Invitrogen).
(§3) Compound activity on the Gq coupled FFA1 receptor constructs was assessed by measuring intracellular level of inositolmonophosphate (IPI) using the HTRF®-IP-One kit (Cisbio International) according to manufacturer's instructions. Briefly, 10,000 receptor expressing cells were seeded into a 384 well microplate and incubated 20 minutes at 37° C. […] Data analysis and nonlinear regression curve fitting were carried out using the GraphPad Prism® software v5.04 (Graphpad Software).

The nature of data set [3]: In vitro drug metabolism in rat liver microsomes. It is filed as in vitro ADME. The note with it: 10 μM, 1 h incubation. On the technique in general: Microsomes from liver hold many membrane-bound enzymes, among them those of drug oxidation.
Method: The incubation was performed in a shaking water bath at 37° C. The reaction was stopped by the addition of 500 μl ice-cold methanol at 0, 15, 30 and 60 min. The samples were centrifuged at 10 000 g for 5 min at 4° C. The supernatants were analysed and quantified by HPLC. Control samples were always performed to check the stability of the compounds in the reaction mixture. First control was without NADPH, which is needed for the enzymatic activity of the microsomes. Second control was with inactivated microsomes (microsomes that were incubated for 20 min at 90° C.). Third control was without test compounds (to determine the baseline). As positive control, a solution of 7-ethoxycoumarin (1 mM) was used. The final concentration of the control compound, under assay conditions, was again 10 μM. The amounts of the test compounds were quantified by an external calibration curve.
The target in a further data set is T3, mFFA1 (Mus musculus, UniProt Q76JU9).
T3 construct: expressed in transfected cells; host or cells: Flp-In T-REx 293 (HEK293), doxycycline-induced
As to the kind of experiment: IP1 accumulation in HEK293 cells stably expressing mFFA1. It is filed as cell-based. The following applies: read-out: pEC50 (IP1 accumulation) (converted). On the procedure:
as §2, §3

For data set [4] the following is noted: after p.o. 30 mg/kg bw of 1c.
Method: Blood was sampled 15 min, 30 min, 1 h, 2 h, 4 h and 8 h after test item application and only 8 h after vehicle application. Each drug treated mouse was sampled twice (0.25 and 0.5 h, 1 and 2 h, 4 and 8 h) via retro orbital puncture. Blood was collected in tubes containing lithium-heparin, stored on ice and subsequently centrifuged at 6000 rpm for 10 minutes at 4° C. (Heraeus biofuge fresco). The plasma was prepared within 45 min after sampling and kept at −20° C. until being assayed. For further kinetic and dynamic analysis the tissues (brain, liver, abdominal fat) were collected 30 min, 2h and 8 h post dose, after the second plasma sampling of each drug treated mouse. Tissue of the vehicle group was sampled only once, 8 h post dose. A volume of 40 μl acetonitrile containing the internal standard (300 ng/ml Diazepam) was added to 20 μl of mouse plasma sample, plasma calibration standard and plasma QC samples. Samples were vigorously shaken and centrifuged for 10 minutes at 6000 g and 20° C. The particle free supernatant was diluted 1:1 with water. An aliquot was transferred to 200 μl sampler vials and subsequently subjected to LC MS with an injection volume of 20 pl. The brain samples were homogenized in PBS (1+1, w/v) using the Precellys 24/Dual homogenizer. A volume of 20 μl of the brain homogenate was mixed (1+1 v/v/) with 20 μl mouse blank plasma. Then 80 μl acetonitrile containing the internal standard (300 ng/ml Diazepam) were added. Samples were vigorously shaken and centrifuged for 10 minutes at 6000 g and 20° C. The particle free supernatant was diluted 1:1 with water. An aliquot was transferred to 200 μl sampler vials and subsequently subjected to LC MS with an injection volume of 20 μl. Mass spectrometry was performed on a TSQ Quantum Discovery Max triple quadrupole mass spectrometer equipped with an electrospray (ESI) interface (Thermo Fisher Scientific, USA) connected to a PC running the standard software Xcalibur 2.0.7. […]
A further data set concerns 3T3-L1 fibroblasts. As to the kind of experiment: Adipocyte differentiation of murine 3T3-L1 cells (Oil Red O staining). It is filed as cell-based. The note with it: 1c 1-10 μM; CIU 10 μM.
Data set [5] has as its system PPARγ target genes (GLUT4, Adiponectin, FABP4, LPL). As to the kind of experiment: qPCR of PPARγ target genes in differentiated 3T3-L1 cells. The data set is classed as cell-based, murine. The following applies: 1-10 μM; compared to rosiglitazone 2 μM.
Method: 3T3-L1 cells were subcultured in DMEM containing 10% newborn calf serum in a humidified atmosphere at 37° C., 5% CO2. […] Briefly, cells were seeded in 6-well plates (2.5×10^6/well). Differentiation was started at day 3 by addition of 1 μg/ml insulin, 0.25 dexamethasone and 0.5 mM isobutylmethylxanthine in DMEM supplemented with 10% fetal calf serum. At day 5 medium was replaced by medium containing only insulin for 2 more days. After this, cells were kept for lipid droplet accumulation in basal medium without additions until day 15. […] Differentiation of 3T3-L1 cells was confirmed by Oil Red 0 staining. Cells were washed with PBS and subsequently fixed for 60 minutes with a formaldehyde solution (4% in PBS). After this, cells were rinsed with 60% isopropanol and incubated with Oil Red 0 solution (0.3%) for 120 minutes.
3T3-L1 cells or homogenized mouse tissues were lysed using TRIzol® reagent (Ambion, life technologies, Carlsbad, USA) and mRNA was isolated following the manufacturers protocol. DNA contaminations were digested using DNAse (DNase I, RNase-free Kit; Thermo Scientific, Waltham, USA) and mRNA concentrations were measured with a NANODROP2000 spectrophotometer (Thermo Scientific, Waltham, USA). […] All samples were measured in triplicates and were analyzed using the ΔΔCT method.
In the next data set the test system is PPARγ target gene CD36. The data set is described as follows: CD36 expression in mouse liver (qPCR). The data set is classed as in vivo. The note with it: single p.o. 30 mg/kg bw, 8 h; compared to non-treated mice. On the technique in general: Quantitative PCR measures a nucleic acid by following its amplification.
The next data set has as its target T4, PPARδ (Homo sapiens, UniProt Q03181).
T4 construct: expressed in transfected cells; host or cells: COS-7
As to the kind of experiment: PPAR transactivation assay in COS-7 cells (Gal4-hPPAR-LBD, luciferase). It is filed as cell-based. The following applies: i.a. = inactive.

In the next data set the test system is HepG2 cells. As to the kind of experiment: WST-1 cytotoxicity assay. It is filed as cell-based. The note with it: up to a concentration of 30 μM; 48 hours. For orientation: Tetrazolium dyes change colour on reduction, which living cells bring about.
In data set [6] the test system is human primary preadipocytes. As to the kind of experiment: Adipocyte differentiation of human primary preadipocytes (Oil Red O staining). It is filed as cell-based. The following applies: 1c 1-10 μM; CIU 10 μM. On the procedure:
as §1

In the next data set the target is T5, recombinant human sEH (Homo sapiens, UniProt P34913).
T5 sequence (P34913 1-555): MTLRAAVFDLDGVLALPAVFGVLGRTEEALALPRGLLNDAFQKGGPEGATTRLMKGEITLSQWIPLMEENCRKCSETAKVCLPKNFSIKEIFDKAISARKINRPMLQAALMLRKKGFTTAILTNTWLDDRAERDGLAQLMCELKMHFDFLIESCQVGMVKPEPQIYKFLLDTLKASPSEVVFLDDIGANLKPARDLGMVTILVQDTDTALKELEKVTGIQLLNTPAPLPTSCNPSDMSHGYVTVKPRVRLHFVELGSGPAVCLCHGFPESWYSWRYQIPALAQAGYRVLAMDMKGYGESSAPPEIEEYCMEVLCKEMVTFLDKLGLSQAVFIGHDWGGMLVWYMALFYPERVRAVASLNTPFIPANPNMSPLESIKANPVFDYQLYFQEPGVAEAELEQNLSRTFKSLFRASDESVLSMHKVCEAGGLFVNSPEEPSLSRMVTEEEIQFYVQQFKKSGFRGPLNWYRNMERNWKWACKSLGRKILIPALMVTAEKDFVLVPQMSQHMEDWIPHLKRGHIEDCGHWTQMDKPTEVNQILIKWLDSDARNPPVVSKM
As to the kind of experiment: biochemical. The following applies: read-out: IC50 sEH (converted).

The test system of another data set is SHROB rats. On the procedure:
SHROB were treated with RB394 (10 mg/kg/d, p.o.; […]) for 8-weeks.
Metabolic syndrome (MetS) is a cluster of symptoms including hypertension, hyperglycemia, hypertriglyceridemia and obesity. […] The inventors hypothesized that the development of a dual modulator (a drug that combines two pharmacophores) could treat more than one symptom of MetS and prevent renal injury. […] The inventors synthesized a novel dual sEH inhibitor-PPAR-γ agonist (sEHi/PPAR-γ), RB394 and investigated its efficacy in a rat model of MetS (see FIG. 21). Three groups of rats were utilized; Group 1: Wister Kyoto (WKY)+Vehicle (n=6); Group 2: Spontaneously Hypertensive Obese (SHROB)+Vehicle (n=5); Group 3: SHROB+RB394 (10 mg/kg/d p.o.; n=5). RB394 or vehicle treatments were administered for 56 days, blood pressure measured, and urine and kidney tissues collected at the end of treatment period. […] Kidney injury was assessed from albuminuria, and also from histopathological analysis of renal tubular cast formation, collagen formation and glomerular injury using Periodic Acid Schiff and Picro Sirius Red staining.
The Medical College of Wisconsin Institutional Animal Care and Use Committee according to the National Institutes of Health Guidelines for Care and Use of Laboratory Animals approved all animal studies. Eight to nine-week-old male Wistar-Kyoto (WKY), and SHROB were purchased from Charles River Laboratories (Wilmington, Mass., USA). Animals were housed in the Biomedical Resource Center at Medical College of Wisconsin with a 12 hour light-dark cycle and free access to tap water along with rat chow. WKY rats (n=6) were used as a control group as a comparison for disease progression. SHROB rats were divided into 2 groups. Group 1 received vehicle (n=5) and Group 2 received RB394 (10 mg/kg/d p.o.; n=5) for 8 weeks. Rats were weighed and systolic blood pressure was measured by tail-cuff plethysmography.
Intra-peritoneal glucose tolerance test was carried out during the 8-week treatment protocol in rats that were fasted overnight and injected with glucose (2 g/kg i.p.). Blood samples were collected from the tail vein before and at different time points after glucose injection. The tail vein blood glucose levels were measured using a glucometer LifeScan (Miltipas, Calif., USA).
Urinary biochemical analysis was done using commercially available ELISA kits; albumin and from Exocell (Philadelphia, Pa.). Rats were anesthetized using isoflorane and plasma collected from the artery. Triglyceride, cholesterol, protein and creatinine assay kits were from Cayman (Ann Arbor, Mich., USA), and free fatty acids from Zen-Bio Inc. (Research Triangle Park, N.C.). Blood glucose levels from the tail vein were measured using a glucometer.
The kidney was excised and immersion-fixed in 10% neutral buffered formalin and paraffin embedded. The embedded kidney and pancreas sections were cut into 4 μm slices for use in histology. Formalin-fixed paraffin-embedded tissue slices were deparaffinized, re-hydrated, and kidney tissue slices were stained with Periodic Acid-Schiff (PAS) and Masson's Trichorme. Glomerulosclerosis and mesangial matrix expansion were blindly scored from kidney sections stained with PAS staining using the following numeric scale: 0=no damage; +1=very mild; +2=mild; +3=moderate and +4=severe. Two observers in a blinded fashion conducted histological analysis at a magnification of ×200 using Nikon NIS Elements Software (Nikon Instruments Inc., Melville, N.Y., USA). Proteinaceous cast in the kidney was also determined in PAS stained kidney sections at magnification of ×200 using Nikon NIS Elements Software. The percentage area positive for proteinaceous cast was calculated from the mean of eight cortical and five medullary fields for each animal. Fibrosis in the kidney was determined in kidney sections stained with Masson's Trichorme at a magnification of ×200.

The mark [7] stands for this setting: SHROB + RB394 10 mg/kg/d p.o., 8 weeks.
Setting [8] is: SHROB + RB394 10 mg/kg/d p.o., 56 days.

In brackets after ≈: the same amount, converted by molar mass.

T4 sequence (Q03181 211-439): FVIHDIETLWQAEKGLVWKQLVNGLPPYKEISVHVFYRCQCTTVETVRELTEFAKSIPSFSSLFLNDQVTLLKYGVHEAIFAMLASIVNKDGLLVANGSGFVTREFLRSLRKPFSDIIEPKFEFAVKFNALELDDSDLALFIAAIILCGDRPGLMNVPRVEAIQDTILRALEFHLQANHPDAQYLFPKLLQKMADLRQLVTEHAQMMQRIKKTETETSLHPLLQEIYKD
T2 sequence (O14842 whole entry): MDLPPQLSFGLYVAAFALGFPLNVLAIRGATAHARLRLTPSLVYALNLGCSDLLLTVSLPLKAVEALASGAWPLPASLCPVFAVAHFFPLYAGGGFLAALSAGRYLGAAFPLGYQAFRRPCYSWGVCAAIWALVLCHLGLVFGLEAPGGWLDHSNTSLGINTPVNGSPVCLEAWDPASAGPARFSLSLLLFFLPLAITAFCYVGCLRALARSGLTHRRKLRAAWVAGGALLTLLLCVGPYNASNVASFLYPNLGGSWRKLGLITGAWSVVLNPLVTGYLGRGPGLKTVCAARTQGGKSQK
T1 sequence (Q07869 239-466): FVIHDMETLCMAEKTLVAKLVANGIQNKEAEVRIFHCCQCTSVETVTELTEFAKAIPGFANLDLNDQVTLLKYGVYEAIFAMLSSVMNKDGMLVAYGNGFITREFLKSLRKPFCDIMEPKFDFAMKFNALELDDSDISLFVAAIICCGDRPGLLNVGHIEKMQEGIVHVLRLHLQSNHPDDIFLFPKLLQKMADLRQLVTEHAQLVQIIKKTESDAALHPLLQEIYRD
T3 sequence (Q76JU9 whole entry): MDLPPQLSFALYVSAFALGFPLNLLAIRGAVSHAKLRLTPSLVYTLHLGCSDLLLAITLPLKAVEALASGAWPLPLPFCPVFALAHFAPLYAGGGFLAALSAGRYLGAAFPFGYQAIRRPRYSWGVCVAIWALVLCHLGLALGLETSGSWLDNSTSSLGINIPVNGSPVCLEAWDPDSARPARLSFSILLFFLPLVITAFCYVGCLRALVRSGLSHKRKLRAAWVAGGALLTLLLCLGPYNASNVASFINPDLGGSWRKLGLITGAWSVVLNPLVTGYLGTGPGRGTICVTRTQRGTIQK
Method for 3T3-L1 fibroblasts: 3T3-L1 cells were subcultured in DMEM containing 10% newborn calf serum in a humidified atmosphere at 37° C., 5% CO2. […] Briefly, cells were seeded in 6-well plates (2.5×10^6/well). Differentiation was started at day 3 by addition of 1 μg/ml insulin, 0.25 dexamethasone and 0.5 mM isobutylmethylxanthine in DMEM supplemented with 10% fetal calf serum. At day 5 medium was replaced by medium containing only insulin for 2 more days. After this, cells were kept for lipid droplet accumulation in basal medium without additions until day 15.
Method for HepG2 cells: The WST-1 assay (Roche Diagnostic GmbH, Mannheim, Germany) was used to determine the cell viability after treatment with the compounds. For this purpose, Hela and HepG2 cells were seeded each in 96-well plates at a density of 1×10^4 per well in DMEM with Phenolred and in presence of 10% FCS. After 24 hours the medium was changed. Fresh DMEM with 10% FCS was added and the cells were treated with the compounds for 48 hours. Cell viability was assessed according to the manufacturer's protocol using a microplate reader (infinity M200, Tecan Group Ltd., Crailsheim, Germany). All experiments were performed at least in triplicate.
Method for PPARγ target gene CD36: 3T3-L1 cells or homogenized mouse tissues were lysed using TRIzol® reagent (Ambion, life technologies, Carlsbad, USA) and mRNA was isolated following the manufacturers protocol. DNA contaminations were digested using DNAse (DNase I, RNase-free Kit; Thermo Scientific, Waltham, USA) and mRNA concentrations were measured with a NANODROP2000 spectrophotometer (Thermo Scientific, Waltham, USA). Subsequently, reverse transcription was performed using the High Capacity RNA-to-cDNA Kit (Applied Biosystems, Foster City, USA). PCR was performed using specific primers for GLUT-4, FABP-4, LPL, adiponectin and CD36 (shown under supporting informations) with a StepOnePlus Real-Time PCR System (Applied Biosystems, Foster City, USA). NoNo (3T3-L1) and β-Actin (mouse tissue) were used as reference genes. All samples were measured in triplicates and were analyzed using the ΔΔCT method.

A word on the solubility: it is the dissolved amount per volume that the medium holds. As usually defined, the IC50 is the concentration that inhibits the measured activity by half. With `CCC(Cc1ccc(C(=O)NCc2ccccc2C(F)(F)F)cc1)C(=O)O` (stereo not shown) [Compound 1c, 2-Ethyl 3-[4-(N-((2-trifluoromethyl)benzyl)benzamide)]propionic acid], the “upregulation of GLUT4 expression” value in data set [1] (1c 10 μM) is “comparable to the rosiglitazone (2 μM) control”. For the same molecule, in data set [1] (1c stimulation), the “upregulation of Adiponectin, FABP4 and LPL” value was “only minor effects”. Also, the “EC50 PPARα” value at PPARα (i.a. = inactive) is “i.a”. Besides, in data set [2], the solubility is 100 µM (≈ 37.9 µg/mL). Besides, the EC50 is 8.32 µM on hFFA1 and 4.9 µM on mFFA1. Besides, the “compound remaining intact after 1 h” value in data set [3] was 92%. Also, the “AUC0→∞” value in [4] amounted to 15847 ng·h/mL. In [4], this molecule registered a tmax of 30 min. The “adipocyte differentiation (Oil-Red O)” value in the data set with 3T3-L1 fibroblasts was “dose-dependent effect”; in data set [6] it was “dose dependent (1-10 μM) effect”. Besides, the “expression of PPARγ target genes (GLUT4, Adiponectin, FABP4, LPL)” value in data set [5] is given as “dose-dependently activated expression of all target genes analysed”. Further, the “increase of CD36 expression in liver” value in the data set with PPARγ target gene CD36 is given as “at least 2 fold”. Also, the “EC50 PPARδ” value at PPARδ was “i.a”. Further, the “cell viability of HepG2 cells (WST-1)” value in the data set on HepG2 cells is “did not impair cell viability”. Further, the IC50 at recombinant human sEH is 1.6 ± 0.2 µM.

Consider `CCC(Cc1ccc(C(=O)NCc2ccc(OC)cc2C(F)(F)F)cc1)C(=O)O` (stereo not shown) [Compound 14c, 2-Ethyl 3-14-(N-(4-methoxy(2-trifluoromethyl)benzyl)benzamide)1 propionic acid], for which, at PPARα (at 10 μM, compared to GW7647 1 μM), the “PPARα activation @10 μM” value is 29%. Besides, the solubility in [2] is 500 µM (≈ 205 µg/mL). For the same molecule, the EC50 on hFFA1 was 14.1 µM. Further, in data set [3], the “compound remaining intact after 1 h” value was 96%. Moreover, the EC50 on mFFA1 was 23.4 µM. In the data set on SHROB rats (8 weeks), the “body weight gained more than vehicle treated SHROB” value is given as “approximately 40 g” and the “systolic blood pressure lower than vehicle treated SHROB” value is recorded as “approximately 44 mmHg”. Besides, in the data set with SHROB rats (setting [7]), the “Body Weight” value is 600 ± 8 g, the “Fasting Blood Glucose” value was found to be 83 ± 7 mg/dL, the “Free fatty Acid” value is “^#322 ± 24 μM” and the “Serum Cholesterol” value is given as “#4.0 ± 0.7 mM”. In addition, in the data set on SHROB rats (setting [7]), the Triglyceride entry was “^#133 ± 18 mg/DL”. Moreover, in the data set on SHROB rats (setting [8]), the albuminuria came out at 59 ± 11 mg/day; the “reduction of glomerular injury” value turned out to be 45%; the “reduction of renal cast and collagen formation” value is reported as 40-50%; the “reduction of renal inflammation (infiltrating immune cells in the kidney)” value was found to be 20%. The “EC50 PPARδ” value at PPARδ is given as “n.t. i.a. i.a. n.t”. In addition, in the data set with HepG2 cells, the “cell viability of HepG2 cells (WST-1)” value was “did not impair cell viability”.
